Results from ChEMBL document CHEMBL3885881, “DrugMatrix”.

Species: Rattus norvegicus
Assay: DrugMatrix - Regimen: Daily Repeat
Assay type: toxicity, organism-based, Sprague-Dawley
Set-up: regimen Daily Repeat, gender Male, age 6-8 weeks
Settings: in vivo, po, route oral GAVAGE, vehicle 100 % WATER; for ABSOLUTE BASOPHIL / ABSOLUTE EOSINOPHIL / ABSOLUTE LYMPHOCYTE / ABSOLUTE MONOCYTE / ABSOLUTE SEGMENTED NEUTROPHIL / BASOPHIL / EOSINOPHIL / ERYTHROCYTE COUNT / HEMATOCRIT / HEMOGLOBIN / LEUKOCYTE COUNT / LYMPHOCYTE / MEAN CORPUSCULAR HEMOGLOBIN / MEAN CORPUSCULAR HEMOGLOBIN CONCENTRATION / MONOCYTE / NEUTROPHIL / NUCLEATED RED BLOOD CELLS / PLATELET COUNT: tissue Blood; for ALANINE AMINOTRANSFERASE / ALBUMIN / ALKALINE PHOSPHATASE / ASPARTATE AMINOTRANSFERASE / BLOOD UREA NITROGEN / CARBON DIOXIDE / CHLORIDE / CREATINE PHOSPHOKINASE / CREATININE / GLUCOSE / LACTATE DEHYDROGENASE / LIPASE / PHOSPHORUS / POTASSIUM / SODIUM / TOTAL BILIRUBIN / TOTAL PROTEIN / URIC ACID / CHOLESTEROL: tissue Plasma
[1] = 35 mg/kg, 120 h, dose level Low, time 5 day
[2] = 1300 mg/kg, 72 h, dose level High, time 3 day
[3] = 1300 mg/kg, 120 h, dose level High, time 5 day

SMILES: Nc1ccn([C@@H]2CS[C@H](CO)O2)c(=O)n1 [LAMIVUDINE]
- ABSOLUTE BASOPHIL [1]: 0 CELLS/uL
- ABSOLUTE EOSINOPHIL [1]: 0 CELLS/uL
- ABSOLUTE LYMPHOCYTE [1]: 6530 CELLS/uL
- ABSOLUTE MONOCYTE [1]: 98.67 CELLS/uL
- ABSOLUTE SEGMENTED NEUTROPHIL [1]: 638 CELLS/uL
- BASOPHIL [1]: 0%
- EOSINOPHIL [1]: 0%
- ERYTHROCYTE COUNT [1]: 5.57 x10E6/uL
- HEMATOCRIT [1]: 34.73%
- HEMOGLOBIN [1]: 13.6 G/DL
- LEUKOCYTE COUNT [1]: 7.27 x10E3/uL
- LYMPHOCYTE [1]: 89.67%
- MEAN CORPUSCULAR HEMOGLOBIN [1]: 24.43 pg
- MEAN CORPUSCULAR HEMOGLOBIN CONCENTRATION [1]: 39.2 G/DL
- MONOCYTE [1]: 1.33%
- NEUTROPHIL [1]: 9%
- NUCLEATED RED BLOOD CELLS [1]: 0.33 /100WBC
- PLATELET COUNT [1]: 1079.33 x10E3/uL
- ALANINE AMINOTRANSFERASE [1]: 45.33 u/L
- ALBUMIN [1]: 4.1 G/DL
- ALKALINE PHOSPHATASE [1]: 359.67 u/L
- ASPARTATE AMINOTRANSFERASE [1]: 82.67 u/L
- BLOOD UREA NITROGEN [1]: 16.67 mg/dL
- CARBON DIOXIDE [1]: 31.33 mmol/L
- CHLORIDE [1]: 100.33 MEQ/L
- CREATINE PHOSPHOKINASE [1]: 391.67 u/L
- CREATININE [1]: 0.16 mg/dL
- GLUCOSE [1]: 152 mg/dL
- LACTATE DEHYDROGENASE [1]: 141.33 u/L
- LIPASE [1]: 8.33 u/L
- PHOSPHORUS [1]: 11.47 mg/dL
- POTASSIUM [1]: 5.48 MEQ/L
- SODIUM [1]: 144.47 MEQ/L
- TOTAL BILIRUBIN [1]: 0.2 mg/dL
- TOTAL PROTEIN [1]: 6.13 G/DL
- URIC ACID [1]: 0.6 mg/dL
- ABSOLUTE BASOPHIL [2]: 0 CELLS/uL
- ABSOLUTE EOSINOPHIL [2]: 0 CELLS/uL
- ABSOLUTE LYMPHOCYTE [2]: 11276.67 CELLS/uL
- ABSOLUTE MONOCYTE [2]: 81 CELLS/uL
- ABSOLUTE SEGMENTED NEUTROPHIL [2]: 842.33 CELLS/uL
- BASOPHIL [2]: 0%
- EOSINOPHIL [2]: 0%
- ERYTHROCYTE COUNT [2]: 5.54 x10E6/uL
- HEMATOCRIT [2]: 34.33%
- HEMOGLOBIN [2]: 13.53 G/DL
- LEUKOCYTE COUNT [2]: 12.2 x10E3/uL
- LYMPHOCYTE [2]: 92.33%
- MEAN CORPUSCULAR HEMOGLOBIN [2]: 24.43 pg
- MEAN CORPUSCULAR HEMOGLOBIN CONCENTRATION [2]: 39.4 G/DL
- MONOCYTE [2]: 0.67%
- NEUTROPHIL [2]: 7%
- NUCLEATED RED BLOOD CELLS [2]: 0.33 /100WBC
- PLATELET COUNT [2]: 1155.33 x10E3/uL
- ALANINE AMINOTRANSFERASE [2]: 45.67 u/L
- ALBUMIN [2]: 4 G/DL
- ALKALINE PHOSPHATASE [2]: 373.67 u/L
- ASPARTATE AMINOTRANSFERASE [2]: 80 u/L
- BLOOD UREA NITROGEN [2]: 10.67 mg/dL
- CARBON DIOXIDE [2]: 27 mmol/L
- CHLORIDE [2]: 102.33 MEQ/L
- CHOLESTEROL [2]: 78.67 mg/dL
- CREATINE PHOSPHOKINASE [2]: 337 u/L
- CREATININE [2]: 0.17 mg/dL
- GLUCOSE [2]: 141 mg/dL
- LACTATE DEHYDROGENASE [2]: 297.67 u/L
- LIPASE [2]: 9.67 u/L
- PHOSPHORUS [2]: 11.83 mg/dL
- POTASSIUM [2]: 6.19 MEQ/L
- SODIUM [2]: 143.47 MEQ/L
- TOTAL BILIRUBIN [2]: 0.13 mg/dL
- TOTAL PROTEIN [2]: 5.8 G/DL
- URIC ACID [2]: 1.57 mg/dL
- ABSOLUTE BASOPHIL [3]: 0 CELLS/uL
- ABSOLUTE EOSINOPHIL [3]: 61 CELLS/uL
- ABSOLUTE LYMPHOCYTE [3]: 14479 CELLS/uL
- ABSOLUTE MONOCYTE [3]: 224.33 CELLS/uL
- ABSOLUTE SEGMENTED NEUTROPHIL [3]: 1569 CELLS/uL
- BASOPHIL [3]: 0%
- EOSINOPHIL [3]: 0.33%
- ERYTHROCYTE COUNT [3]: 5.68 x10E6/uL
- HEMATOCRIT [3]: 36.2%
- HEMOGLOBIN [3]: 13.93 G/DL
- LEUKOCYTE COUNT [3]: 16.33 x10E3/uL
- LYMPHOCYTE [3]: 88.67%
- MEAN CORPUSCULAR HEMOGLOBIN [3]: 24.5 pg
- MEAN CORPUSCULAR HEMOGLOBIN CONCENTRATION [3]: 38.5 G/DL
- MONOCYTE [3]: 1.33%
- NEUTROPHIL [3]: 9.67%
- NUCLEATED RED BLOOD CELLS [3]: 0 /100WBC
- PLATELET COUNT [3]: 1204.33 x10E3/uL
- ALANINE AMINOTRANSFERASE [3]: 50 u/L
- ALBUMIN [3]: 3.9 G/DL
- ALKALINE PHOSPHATASE [3]: 303.67 u/L
- ASPARTATE AMINOTRANSFERASE [3]: 84.33 u/L
- BLOOD UREA NITROGEN [3]: 15 mg/dL
- CARBON DIOXIDE [3]: 24.33 mmol/L
- CHLORIDE [3]: 102 MEQ/L
- CHOLESTEROL [3]: 70 mg/dL
- CREATINE PHOSPHOKINASE [3]: 295.33 u/L
- CREATININE [3]: 0.2 mg/dL
- GLUCOSE [3]: 162.67 mg/dL
- LACTATE DEHYDROGENASE [3]: 239 u/L
- LIPASE [3]: 11 u/L
- PHOSPHORUS [3]: 11.9 mg/dL
- POTASSIUM [3]: 6.04 MEQ/L
- SODIUM [3]: 143.87 MEQ/L
- TOTAL BILIRUBIN [3]: 0.17 mg/dL
- TOTAL PROTEIN [3]: 5.73 G/DL
- URIC ACID [3]: 1.53 mg/dL
